Data: patent US10246456B2, “IRAK4 inhibiting agents” (BIOGEN MA INC., priority 2014, dated 2019)
pEC50, pIC50: −log10 of the molar value.

Experiments:
[1] = target: IRAK4 (Homo sapiens (Human), UniProt Q9NWZ3); experiment: IRAK-4 AlphaScreen biochemical kinase assay; details: 1 nM IRAK4, 1 mM ATP, 3.5 h at RT
In short: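 AlphaScreen read-out: streptavidin beads bind the biotinylated peptide and protein A beads bind the anti-phosphothreonine antibody, so energy transfer reports phosphorylation of the peptide. The kinase is human IRAK-4.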

[2] = test system: IL-6 in A549 cells; experiment: Cell-based IL-6 ELISA assay in IL-1beta stimulated A549 cells; details: 2 ng/ml human IL-1beta overnight
Procedure: The cell-based assays is based on IL-6 ELISA quantification. Briefly, A549 cells are cultured in DMEM with 10% FBS medium. When cells reach 80% confluence they are trypsin treated and seeded 180 ul/well in 96-well plate at 2.5×10^4 cells/well. Then, 20 ul of compound serial dilutions (starting at 10 uM, 10 points) are added to the cell plate; incubate for 30 min at 37 C and stimulated with 2 ng/ml human IL-1beta 37 C, 5% CO2 overnight. The next day 100 ul of cell supernatant per well are analyzed on a Human IL-6 Quantikine ELISA kit from R&D Systems.

IRAK4, sequence (Q9NWZ3 whole entry, species assumed): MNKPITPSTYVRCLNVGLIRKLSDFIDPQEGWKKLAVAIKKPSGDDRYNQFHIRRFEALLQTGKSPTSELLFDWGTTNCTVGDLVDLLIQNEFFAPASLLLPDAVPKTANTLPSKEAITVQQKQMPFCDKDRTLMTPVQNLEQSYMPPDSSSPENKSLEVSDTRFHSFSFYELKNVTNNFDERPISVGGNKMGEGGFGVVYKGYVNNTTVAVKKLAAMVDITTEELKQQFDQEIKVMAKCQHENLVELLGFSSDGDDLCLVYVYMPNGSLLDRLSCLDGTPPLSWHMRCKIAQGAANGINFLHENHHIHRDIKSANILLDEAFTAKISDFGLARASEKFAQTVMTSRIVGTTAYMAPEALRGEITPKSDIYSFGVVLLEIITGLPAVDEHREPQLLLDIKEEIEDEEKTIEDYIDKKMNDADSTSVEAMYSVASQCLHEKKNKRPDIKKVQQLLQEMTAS

SMILES | pIC50 [1] | pEC50 [2]
CC(O)c1cccc(-n2ncc3ccc(-c4cccc([C@H](C)N)n4)cc32)n1 (single isomer, unassigned) [Example 416] | > 7.00 | ≥ 6.00
CCC[C@H](N)c1cccc(-c2ccc3cnn(-c4cccc(C(C)O)n4)c3c2)n1 (single isomer, unassigned) [Example 418] | > 7.00 | ≥ 6.00
CCCC(N)c1cccc(-c2ccc3cnn(-c4cccc(C(F)F)n4)c3c2)n1 (stereo in doubt) [Example 519, (S)-1-(6-(1-(6-(difluoromethyl)pyridin-2-yl)-1H-indazol-6-yl)pyridin-2-yl)butan-1-amine] | > 7.00 | ≥ 6.00
CC(N)c1cccc(-c2ccc3cnn(-c4cccc(C(F)F)n4)c3c2)n1 (stereo in doubt) [Example 529, (S)-1-(6-(1-(6-(difluoromethyl)pyridin-2-yl)-1H-indazol-6-yl)pyridin-2-yl)ethanamine] | > 7.00 | ≥ 6.00
CCC[C@H](N)c1cccc(-c2cc(N3CCCC3CO)c3cnn(-c4cccc(CO)n4)c3c2)n1 (stereo partly drawn) [Example 326, (1-(6-(6-((S)-1-aminobutyl)pyridin-2-yl)-1-(6-(hydroxymethyl)pyridin-2-yl)-1H-indazol-4-yl)pyrrolidin-2-yl)methanol] | > 7.00 | ≥ 6.00
CCC[C@H](N)c1cccc(-c2cc(NC)c3cnn(-c4cccc(CO)n4)c3c2)n1 [Example 327, (S)-(6-(6-(6-(1-aminobutyl)pyridin-2-yl)-4-(methylamino)-1H-indazol-1-yl)pyridin-2-yl)methanol] | > 7.00 | ≥ 6.00
CCC[C@H](N)c1cccc(-c2cc(NCC)c3cnn(-c4cccc(CO)n4)c3c2)n1 [Example 328, (S)-(6-(6-(6-(1-aminobutyl)pyridin-2-yl)-4-(ethylamino)-1H-indazol-1-yl)pyridin-2-yl)methanol] | > 7.00 | ≥ 6.00

The remaining lines, values ahead:

pIC50 [1] | pEC50 [2] | SMILES
> 7.00 | ≥ 6.00 | CCC[C@H](N)c1cccc(-c2cc(N3CCC(O)C3)c3cnn(-c4cccc(CO)n4)c3c2)n1 (stereo partly drawn) [Example 325, 1-(6-(6-((S)-1-aminobutyl)pyridin-2-yl)-1-(6-(hydroxymethyl)pyridin-2-yl)-1H-indazol-4-yl)pyrrolidin-3-ol]
> 7.00 | ≥ 6.00 | CCC[C@H](N)c1cccc(-c2cc(N3CCC(O)CC3)c3cnn(-c4cccc(CO)n4)c3c2)n1 [Example 329, (S)-1-(6-(6-(1-aminobutyl)pyridin-2-yl)-1-(6-(hydroxymethyl)pyridin-2-yl)-1H-indazol-4-yl)piperidin-4-ol]
> 7.00 | ≥ 6.00 | CCC[C@H](N)c1cccc(-c2cc(N3CCCC(O)C3)c3cnn(-c4cccc(CO)n4)c3c2)n1 (stereo partly drawn) [Example 330, 1-(6-(6-((S)-1-aminobutyl)pyridin-2-yl)-1-(6-(hydroxymethyl)pyridin-2-yl)-1H-indazol-4-yl)piperidin-3-ol]
> 7.00 | ≥ 6.00 | CCC[C@H](N)c1cccc(-c2cc(N3CC(F)(F)C3)c3cnn(-c4cccc(CO)n4)c3c2)n1 [Example 331, (S)-(6-(6-(6-(1-aminobutyl)pyridin-2-yl)-4-(3,3-difluoroazetidin-1-yl)-1H-indazol-1-yl)pyridin-2-yl)methanol]
> 7.00 | ≥ 6.00 | CCC[C@H](N)c1cccc(-c2cc(N3CC(CO)(CCl)C3)c3cnn(-c4cccc(CO)n4)c3c2)n1 [Example 332, (S)-(1-(6-(6-(1-aminobutyl)pyridin-2-yl)-1-(6-(hydroxymethyl)pyridin-2-yl)-1H-indazol-4-yl)-3-(chloromethyl)azetidin-3-yl)methanol]
> 7.00 | ≥ 6.00 | CCC[C@H](N)c1cccc(-c2cc(N3CCC(F)(F)C3)c3cnn(-c4cccc(CO)n4)c3c2)n1 [Example 333, (S)-(6-(6-(6-(1-aminobutyl)pyridin-2-yl)-4-(3,3-difluoropyrrolidin-1-yl)-1H-indazol-1-yl)pyridin-2-yl)methanol]
